Measured values: article PMC10160475, “Biological evaluation and in silico studies of novel compounds as potent TAAR1 agonists that could be used in schizophrenia treatment” (Frontiers in Pharmacology, 2023)

Legend:
human TAAR1 = target: T1, human TAAR1 (Homo sapiens, UniProt Q96RJ0); assay: cAMP assay, functional agonist activity at human TAAR1; type: cell-based
T1 construct: expressed in transfected cells; host or cells: cAMP Hunter CHO-K1 AGTRL1 Gi cells
T1 sequence (Q96RJ0 1-339): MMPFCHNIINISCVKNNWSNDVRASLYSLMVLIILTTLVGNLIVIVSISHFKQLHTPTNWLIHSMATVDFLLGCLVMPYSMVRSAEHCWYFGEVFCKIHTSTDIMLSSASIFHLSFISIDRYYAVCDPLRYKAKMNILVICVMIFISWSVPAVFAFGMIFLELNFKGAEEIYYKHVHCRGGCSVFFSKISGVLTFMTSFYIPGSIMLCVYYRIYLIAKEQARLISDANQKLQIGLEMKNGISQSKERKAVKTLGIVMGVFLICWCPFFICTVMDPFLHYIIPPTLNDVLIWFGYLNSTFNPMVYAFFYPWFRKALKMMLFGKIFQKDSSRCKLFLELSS
Protocol: Cells were seeded in a total volume of 20 µL into white-walled, 384-well microplates, followed by incubation at 37°C for the appropriate time before testing. Different concentrations of compounds were added to cells, and incubation was undertaken at 37°C for 10 min, with p-tyramine used as the MAX control. cAMP modulation was determined using the DiscoverX HitHunter cAMP XS + assay. Percentage activity was calculated using the following equation: Activity %=mean RLUtest sample – mean RLUvehicle control/mean RLUMAX control – mean RLUvehicle control×100%.

human 5-HT2A = target: T2, human 5-HT2A (Homo sapiens, UniProt P28223); assay: Calcium (FLIPR) assay, agonist activity at human 5-HT2A; type: cell-based
T2 construct: expressed in transfected cells; host or cells: Flp-In-CHO cell line
Protocol: With regard to 5-HT2A, the agonistic or inhibitory activity of 5-HT2A of compounds was determined using the Flp-In™-CHO cell line expressing human 5-HT2A. Cells were cultured with Ham’s F-12K (Kaighn’s) medium supplemented with 10% FBS, penicillin (100 U/ml), streptomycin (100 μg/ml), and hygromycin B (600 μg/ml) at 37°C in an atmosphere of 95% air and 5% CO2. Cells were stimulated with different concentrations of compounds for 2 h at 37°C after seeding in 384-well microplates. For the determination of agonistic activity, serotonin was used as the MAX control. In the determination of inhibitory activity, ketanserin was used as the MAX control.

D2S receptors = target: T3, D2S receptors (Homo sapiens, UniProt P14416); assay: cAMP assay, inhibition at human dopamine D2S receptors; type: cell-based
T3 construct: expressed in transfected cells; host or cells: Flp-In-CHO cells
Protocol: With regard to D2L and D2S, recombinant Flp-In™-CHO cells expressing human dopamine D2L receptors or D2S receptors were cultured with Ham’s F-12K (Kaighn’s) medium supplemented with 10% FBS, penicillin (100 U/ml), streptomycin (100 μg/ml), and hygromycin B (600 μg/ml) at 37°C in an atmosphere of 5% CO2. The methods of cell inoculation and compound treatment were the same as those for TAAR1, and haloperidol was used as the MAX control. Percentage inhibition was calculated using the following equation: Inhibition %=mean RLUtest sample−mean RLUvehicle control/mean RLUMAX control−mean RLUvehicle control×100%.

[1] = Tissue distribution (brain and plasma) in rats; type: in vivo, Sprague–Dawley rats
Protocol: Rats (three males and three females) were sacrificed at 0.25, 1, or 6 h after administration of 50B (5 mg/kg, i.g.). Blood and brain tissues were harvested. The concentration of compounds in all tissue and blood samples was determined by LC-MS/MS. Drug concentration data were processed in a non-atrioventricular model using WinNonlin™ 6.3.

[2] = Permeability and transporter substrate evaluation in Caco-2 cells; type: in vitro ADME; settings: human
Protocol: Cells were seeded into 96-well cell plates and cultured continuously for 24 days for subsequent experiments. Compounds were administered with or without verapamil (2 µM). […] The […] content in each sample was measured by liquid chromatography–tandem mass spectrometry (LC-MS/MS). The apparent permeability coefficient and the efflux ratio were calculated.

[3] = Liver microsomal stability, mouse
Protocol: Compounds were incubated with samples of liver microsomes from mice, rats, and humans and NADPH for 5, 10, 20, 30, or 60 min at 37°C. A cold acetonitrile solution containing tolbutamide was used to terminate the reaction. Testosterone and dextromethorphan were used as positive controls. LC-MS/MS was employed to determine the retention of compounds. The retention time, chromatogram acquisition, and chromatogram integration of compounds and positive control substances were analyzed using Analyst (AB Sciex, Framingham, MA, United States).

hERG = target: T4, hERG (Homo sapiens, UniProt Q12809); assay: hERG assay (electrophysiological recording, CHO cells stably expressing hERG); type: cell-based; settings: up to a maximum concentration of 30 μM
T4 construct: expressed in transfected cells; host or cells: CHO cells stably expressing hERG
Protocol: CHO cells stably expressing hERG cultured with DMEM/F12 supplemented with 10% FBS, penicillin (100 U/ml), and streptomycin (100 μg/ml) were cultured in cell culture dishes (diameter = 35 mm) in an incubator at 37°C in an atmosphere of 5% CO2. They were passaged at a ratio of 1:5 every 48 h. The medium comprised 90% F12, 10% FBS, G418 (100 μg/ml), and hygromycin B (100 μg/ml). On the day of the assay, the cell culture medium was aspirated and washed with an extracellular solution. Then, 0.25% Trypsin–EDTA solution was added, and digestion was allowed for 3–5 min at room temperature. Digestive juice was aspirated, and cells were transferred to the experimental dish for electrophysiological recording after resuspension with the extracellular solution for future use.

[4] = Liver microsomal stability, monkey

T2 sequence (P28223 whole entry): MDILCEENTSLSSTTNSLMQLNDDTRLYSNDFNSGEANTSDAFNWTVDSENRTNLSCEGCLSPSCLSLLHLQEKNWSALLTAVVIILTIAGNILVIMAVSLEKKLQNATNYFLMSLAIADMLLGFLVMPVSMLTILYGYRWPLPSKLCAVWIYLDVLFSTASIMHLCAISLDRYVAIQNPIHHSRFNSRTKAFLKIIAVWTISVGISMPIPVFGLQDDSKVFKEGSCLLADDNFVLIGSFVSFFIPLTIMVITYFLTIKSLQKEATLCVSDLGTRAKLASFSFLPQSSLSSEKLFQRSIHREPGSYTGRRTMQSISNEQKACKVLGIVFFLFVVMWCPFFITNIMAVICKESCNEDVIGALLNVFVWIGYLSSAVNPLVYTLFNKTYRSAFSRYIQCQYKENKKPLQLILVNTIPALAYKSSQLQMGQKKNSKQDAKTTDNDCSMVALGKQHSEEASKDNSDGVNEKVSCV
T3 sequence (P14416 1-414 isoform P14416-2): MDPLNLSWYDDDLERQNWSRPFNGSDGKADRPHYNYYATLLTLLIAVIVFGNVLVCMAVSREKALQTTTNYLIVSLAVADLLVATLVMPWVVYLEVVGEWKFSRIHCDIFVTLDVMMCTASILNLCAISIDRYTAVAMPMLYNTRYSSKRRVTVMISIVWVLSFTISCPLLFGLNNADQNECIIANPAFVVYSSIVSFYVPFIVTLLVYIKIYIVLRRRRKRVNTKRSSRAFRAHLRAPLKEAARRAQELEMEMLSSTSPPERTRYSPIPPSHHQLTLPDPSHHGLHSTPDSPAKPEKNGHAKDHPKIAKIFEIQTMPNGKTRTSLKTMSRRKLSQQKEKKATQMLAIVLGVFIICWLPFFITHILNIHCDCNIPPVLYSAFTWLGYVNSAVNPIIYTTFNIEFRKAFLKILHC
T4 sequence (Q12809 whole entry): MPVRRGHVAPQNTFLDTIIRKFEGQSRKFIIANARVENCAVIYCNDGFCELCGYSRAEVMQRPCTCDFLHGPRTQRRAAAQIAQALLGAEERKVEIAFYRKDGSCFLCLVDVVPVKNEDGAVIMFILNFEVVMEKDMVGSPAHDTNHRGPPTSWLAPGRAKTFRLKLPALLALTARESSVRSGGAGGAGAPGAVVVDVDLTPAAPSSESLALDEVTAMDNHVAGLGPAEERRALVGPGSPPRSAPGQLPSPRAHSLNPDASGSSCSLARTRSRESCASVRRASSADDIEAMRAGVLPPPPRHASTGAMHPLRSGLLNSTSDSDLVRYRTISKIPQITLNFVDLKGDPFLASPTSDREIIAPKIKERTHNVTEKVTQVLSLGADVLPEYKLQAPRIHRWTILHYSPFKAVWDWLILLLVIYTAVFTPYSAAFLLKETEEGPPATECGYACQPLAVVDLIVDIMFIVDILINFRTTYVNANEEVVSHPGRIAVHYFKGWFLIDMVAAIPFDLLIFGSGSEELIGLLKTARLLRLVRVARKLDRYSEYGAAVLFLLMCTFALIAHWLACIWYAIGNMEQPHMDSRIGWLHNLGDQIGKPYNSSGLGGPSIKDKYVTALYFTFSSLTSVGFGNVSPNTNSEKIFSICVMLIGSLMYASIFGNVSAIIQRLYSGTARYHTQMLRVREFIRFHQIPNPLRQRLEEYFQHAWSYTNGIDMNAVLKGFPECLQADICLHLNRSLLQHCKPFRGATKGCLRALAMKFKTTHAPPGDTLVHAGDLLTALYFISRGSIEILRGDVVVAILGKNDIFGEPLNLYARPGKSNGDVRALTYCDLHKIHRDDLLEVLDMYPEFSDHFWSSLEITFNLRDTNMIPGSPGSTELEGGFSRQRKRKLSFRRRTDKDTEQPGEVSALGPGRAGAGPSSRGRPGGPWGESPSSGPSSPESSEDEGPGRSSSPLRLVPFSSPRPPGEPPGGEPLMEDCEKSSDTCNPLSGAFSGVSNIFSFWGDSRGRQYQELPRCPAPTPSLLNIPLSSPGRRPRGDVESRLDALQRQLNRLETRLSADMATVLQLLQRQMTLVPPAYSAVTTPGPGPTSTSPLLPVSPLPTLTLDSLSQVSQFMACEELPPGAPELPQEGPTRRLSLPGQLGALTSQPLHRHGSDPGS

c1csc([C@@H]2CNCCO2)c1 [Compound 50B]
EC50 (human TAAR1): 0.405 µM
Emax (human TAAR1; read-out: TAAR1 Agonist % Emax): 80.1%
EC50 (human 5-HT2A): 61.2 µM
Emax (human 5-HT2A; serotonin as MAX control, up to 100 μM, read-out: 5-HT2A agonism Emax): 54.9%
IC50 (D2S receptors): > 100 µM
Emax (D2S receptors; haloperidol as MAX control, up to 100 μM, read-out: dopamine D2S antagonist Emax): 24.9%
Concentration ratio brain to plasma compared with SEP-856 ([1]; rats, 5 mg/kg i.g.): increased significantly compared with that of SEP-856
Plasma concentration compared with SEP-856 ([1]; rats, 5 mg/kg i.g., same time point): lower than that of SEP-856
Detection in rat brain ([1]; single intragastric administration, 5 mg/kg, 0.25 to 6 h): detected in rat brains from 0.25 to 6 h
efflux ratio at 120 min ([2]; Caco-2): 0.781
Papp A→B at 120 min ([2]; Caco-2, 120 min incubation): 35.2 ×10⁻⁶ cm/s
Papp B→A at 120 min ([2]; Caco-2, 120 min incubation): 27.5 ×10⁻⁶ cm/s
Remaining (T = 60 min) ([3]; Mouse liver microsomes, 60 min): 53.5%
CLint scaled ([3]; mouse, liver microsomes): 80.8 mL/min/kg
half-life ([3]; mouse, liver microsomes): 1.13 h
hERG cardiotoxicity (hERG): not cardiotoxic
Remaining (T = 60 min) ([4]; Monkey liver microsomes, 60 min): 85.1%
CLint scaled ([4]; monkey, liver microsomes): < 13.5 mL/min/kg
half-life ([4]; monkey, microsomes): > 3.1 h
